From patent US10196385B2, “Tetrahydropyranyl benzamide derivatives” (Eli Lilly and Company, priority 2015, dated 2019)

What was measured:
[1] = target: GPR142 (Mus musculus (Mouse), UniProt Q7TQN9); assay: Intraperitoneal Glucose Tolerance Tests (IPGTT); assay type: in vivo; details: male C57BL/6 mice; for ED50 / ED80: oral dosing 30 minutes prior to i.p. glucose challenge (2 g/kg), glucose AUC lowering; for considered positive in the assay (reduction in glucose AUC, P<0.05): oral dosing, IPGTT
GPR142, sequence (Q7TQN9 whole entry): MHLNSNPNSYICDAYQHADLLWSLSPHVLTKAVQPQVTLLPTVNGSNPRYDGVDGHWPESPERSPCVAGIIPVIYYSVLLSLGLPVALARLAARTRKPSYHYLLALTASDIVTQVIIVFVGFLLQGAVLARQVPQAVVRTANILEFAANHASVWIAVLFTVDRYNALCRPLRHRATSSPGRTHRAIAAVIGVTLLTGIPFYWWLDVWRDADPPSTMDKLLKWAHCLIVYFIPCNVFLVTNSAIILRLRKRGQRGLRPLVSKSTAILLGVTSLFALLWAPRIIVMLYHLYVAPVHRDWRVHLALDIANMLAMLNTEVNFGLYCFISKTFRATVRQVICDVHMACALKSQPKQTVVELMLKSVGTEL
Method: Intraperitoneal Glucose Tolerance Tests (IPGTT)
IPGTT assay is used to examine the ability of exemplified compounds to activate GPR142 in vivo resulting in anti-diabetic efficacy, i.e. reduction in plasma glucose levels. Male C57BL/6 mice (8-10 weeks of age) are fed normal rodent chow diet and water ad libitum. On the night before the study, animals are fasted overnight in clean cages. On the morning of the study, animals are dosed orally with vehicle or compound at the indicated doses 30 minutes prior to the glucose challenge (2 g/kg) by intraperitoneal injection. Blood glucose levels are determined from tail bleeds taken immediately prior to compound dosing (−30 min) and 0, 15, 30, and 60 min after glucose challenge using handheld glucometers. Plasma is isolated from tail bleeds taken at 7 min after glucose challenge and used to determine insulin levels by the Rat/Mouse Insulin Elisa kit (Millipore) or MA6000 Mouse/Rat Insulin Kit (MSD). The blood glucose profile from t=0 to t=60 min is used to calculate an area under the curve (AUC) for each treatment. Percent lowering in glucose AUC is calculated for each treatment group with respect to the AUC of vehicle group. A compound with a reduction in glucose AUC (P<0.05) is considered positive in the assay.

[2] = target: human GPR142 (Homo sapiens (Human), UniProt Q7Z601); assay: GPR142 Agonist Effect as Measured by IP-1 Assay; assay type: cell-based; details: HEK293 cells expressing human GPR142, Mean ± SEM; for Efficacy: IP-1 assay; for EC50: IP-One HTRF, read-out: hGPR142 IP1 EC50
human GPR142, sequence (Q7Z601 whole entry): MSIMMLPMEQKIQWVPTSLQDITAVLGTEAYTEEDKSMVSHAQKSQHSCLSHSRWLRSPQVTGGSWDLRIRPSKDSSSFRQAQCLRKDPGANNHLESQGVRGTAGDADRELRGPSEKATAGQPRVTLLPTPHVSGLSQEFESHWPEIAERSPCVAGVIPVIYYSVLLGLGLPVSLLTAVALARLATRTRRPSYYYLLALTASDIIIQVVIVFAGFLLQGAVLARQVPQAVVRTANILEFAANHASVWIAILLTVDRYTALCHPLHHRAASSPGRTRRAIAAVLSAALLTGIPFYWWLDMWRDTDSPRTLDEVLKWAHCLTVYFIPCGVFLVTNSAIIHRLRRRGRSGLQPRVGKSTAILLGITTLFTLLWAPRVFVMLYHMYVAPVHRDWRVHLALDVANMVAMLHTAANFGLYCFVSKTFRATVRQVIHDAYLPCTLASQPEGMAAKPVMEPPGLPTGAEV
Method: GPR142 Agonist Effect as Measured by IP-1 Assay
The purpose of this assay is to detect GPR142 agonist effect.
HEK293 cells expressing human GPR142 are maintained in DMEM supplemented with 10% FBS and 800 μg/ml G418 (Geneticin®) at 37° C. and 5% CO2. The cells are plated in 384 well plates at 5000 cells per well and allowed 18 hours for attachment. After addition of compounds at varying concentrations ranging from 30 μM to 1 nM, cells are incubated for 1 hr. IP-1 measurements are performed using an IP-One HTRF® assay kit (Cisbio) according to manufacturer's protocol using assay buffer containing 1×HBSS (+Ca, +Mg), 0.1% BSA, 50 mM LiCl and 20 mM HEPES, pH 7.2. The reaction is stopped by addition of IP1-d2 (IP-1 coupled to an organic HTRF acceptor) followed by cryptate solution (http://www.htrf.com/usa/htrf-chemistry). The plates are incubated at 25° C. for 1 hr. Fluorescence is read in an Envision instrument at 665 nm and 620 nm wavelength. The ratio of 665 nm/620 nm is calculated and converted to IP-1 levels using an IP-1 standard curve. The data is fit to a 4 parameter-fit logistics to determine EC50 values.

Question: How did the ED50 [1] turn out when `Cc1ncn(C)c1-c1nnc([C@@H]2C[C@H](N(C)C(=O)c3cccc(C(F)(F)F)c3)CCO2)[nH]1` (single isomer, unassigned; isomer 1) [Example 1, Cis-(chiral)-N-[(2-[5-(1,4-Dimethyl-1H-imidazol-5-yl)-4H-1,2,4-triazol-3-yl]tetrahydro-2H-pyran-4-yl]-N-methyl-3-(trifluoromethyl)benzamide, Isomer 1] was run?
Answer: 0.30 mpk

Question: And the ED80 [1]?
Answer: 1.6 mpk

Question: What about the “considered positive in the assay (reduction in glucose AUC, P<0.05)” value [1] of the same compound?
Answer: positive

Question: And the Efficacy [2]?
Answer: 109 ± 3, n = 12%

Question: What about the EC50 [2] of the same compound?
Answer: 43.5 ± 7.9 nM

Question: `Cc1ncn(C)c1-c1nnc([C@@H]2C[C@H](N(C)C(=O)c3cccc(OC(F)(F)F)c3)CCO2)[nH]1` (single isomer, unassigned; isomer 1) [Example 2, Cis-(chiral)-N-[2-[5-(1,4-Dimethyl-1H-imidazol-5-yl)-4H-1,2,4-triazol-3-yl]tetrahydro-2H-pyran-4-yl]-N-methyl-3-(trifluoromethoxy)benzamide, Isomer 1] was tested. Which ED50 [1] did it give?
Answer: 0.24 mpk

Question: What about the ED80 [1] of the same compound?
Answer: 1.6 mpk

Question: What about the “considered positive in the assay (reduction in glucose AUC, P<0.05)” value [1] of the same compound?
Answer: positive

Question: What about the Efficacy [2] of the same compound?
Answer: 110 ± 2, n = 11%

Question: What about the EC50 [2] of the same compound?
Answer: 30.1 ± 4.2 nM

Question: Which results are given for `Cc1ncn(C)c1-c1nnc([C@@H]2C[C@H](N(C)C(=O)c3cccc(Cl)c3)CCO2)[nH]1` (single isomer, unassigned; isomer 1) [Example 3, Cis-(chiral)-3-Chloro-N-[2-[5-(1,4-dimethyl-1H-imidazol-5-yl)-4H-1,2,4-triazol-3-yl]tetrahydro-2H-pyran-4-yl]-N-methyl-benzamide, Isomer 1]?
Answer: Efficacy [2]: 112 ± 3, n = 7%; EC50 [2]: 27.2 ± 4.8 nM
